Data reported in patent US20260232666A1, “COMPOSITIONS AND METHODS FOR INHIBITION OF RAS” (TheRas, Inc., priority 2023, published 2026).

What was measured:
[1] = molecular target: T1, GTP-loaded KRAS4b (amino acids 1-169) G12C/C118S protein (Homo sapiens, UniProt P01116, C118S/G12C); assay: Covalent cysteine 12 modification by MALDI-TOF MS, GTP-loaded KRAS G12C; type: binding; details: 15 minutes reaction time point
T1 construct: KRAS4b (amino acids 1-169) G12C/C118S protein; made in house
Method: (§1) Biological Example 1: Covalent Cysteine 12 Modification Analysis Using Matrix Assisted Laser Desorption Ionization-Time of Flight Mass Spectrometry (MALDI-TOF MS)
(§2) MALDI-TOF MS analysis was performed using 1 μM protein (KRAS G12C), and 1:2.5 protein to compound ratio.
(§3) Reaction: 1 μM of GppNHp, GTP, or GDP-loaded KRAS4b (amino acids 1-169) G12C/C118S protein (produced in-house by Protein Expression Laboratory, FNLCR/Leidos Biomed) in 20 mM 4-(2-hydroxyethyl)-1-piperazineethanesulfonic acid (HEPES) buffer containing 150 mM NaCl, 1 mM MgCl2, pH 7.3 was prepared freshly before assay. Twelve-μL aliquots of protein were dispensed onto low volume 384-well plate, then 30 nL of tested compounds from 1 mM DMSO stocks were added to appropriate wells using ECHO 555 acoustic liquid handler (Labcyte Inc.). For each reaction/assay, three blanks were prepared by mixing 12 μL of protein solution with 30 nL DMSO. The contents of the wells were carefully mixed by aspiration, and then each plate was sealed with an adhesive cover, centrifuged at 2000 g for 1 minute, and kept in the dark at room temperature until 5 min, 15 min, 30 min, 2 h, or 6 h collections.
(§4) Target pretreatment: Before each assay MALDI target (Bruker MPT 384 ground steel BC) was pre-treated by pipetting on each spot 0.75 μL of saturated sinapinic acid in acetonitrile (ACN).
(§5) Sample preparation: At collection time point, 2 μL of reaction mixtures were pipetted out into 15 μL MALDI matrix solution (saturated solution of sinapinic acid in 1:1 ACN:water solution containing 0.75% trifluoroacetic acid (TFA)) deposited on 384 well polypropylene plate. Resulting solution was mixed by aspiration, centrifuged at 2000 g for 1 minute, then 1.5 μL aliquots were dispensed on pre-treated MALDI target using Beckman Coulter Biomek FXP 96/384-Span-8 Laboratory Automation Workstation. Finally, the MALDI target was dried under mild vacuum to produce spots with fine crystalline structure.
(§6) Measurements: MALDI-TOF measurements were performed on a Bruker Daltonics rapiflex Tissuetyper TOF-TOF mass spectrometer using linear mode and mass range from 18.6 to 21.6 kDa. Detector gain was set to 3.3×(483 V), sample rate to 5 GS/s, real time smoothing to medium (175 MHz), laser smart beam pattern was set to: “MS Thin Layer M5”, and the laser frequency was 10000 Hz. Spectra were automatically collected using custom AutoXecute method. Laser power was auto adjusted using fuzzy control. The peak selection range was set to be between 19000 and 21500 Da. Peak evaluation uses half width parameter set to be smaller than 40 Da for processed spectrograms (centroid peak detection; smoothed by SavitzkyGolay algorithm using 7 m/z width and 2 cycles; baseline was subtracted using median algorithm with flatness 1 and median level 0.01). Fuzzy control used Proteins/Oligonucleotides protocol with minimum half width 1/10 times above threshold. Up to 40000 satisfactory shots were collected in 10000 shot steps. Dynamic termination was implemented to finish data collection when peak signal/noise ratio was reaching value of 50.
(§7) Spectra processing: Spectra were smoothed by SavitzkyGolay algorithm using 7 m/z width and three cycles. Centroid peak detection algorithm was used with signal to noise threshold set to 6, relative intensity threshold 4%, peak width 10 m/z and median baseline subtraction using flatness of 1 and median level of 0.01. Peak intensity and area under the peak were evaluated and recorded for all peaks between 19,300 Da and 21,550 Da.
(§8) Calculation of percent modification: Percent modification was calculated as a ratio of peak height for protein modified by compound to sum of peak height of remaining protein plus peak height for protein modified by compound. If multiple modifications were observed each was calculated as a ratio of peak height for given modification versus sum of peak heights for all observed protein species. Data reported in Table 4 are from 15 minutes reaction time point. […]

[2] = molecular target: T2, GppNHp-loaded KRAS4b (amino acids 1-169) G12C/C118S protein (Homo sapiens, UniProt P01116, C118S/G12C); assay: Covalent cysteine 12 modification by MALDI-TOF MS, GppNHp-loaded KRAS G12C; type: binding; details: 15 minutes reaction time point
T2 construct: KRAS4b (amino acids 1-169) G12C/C118S protein; made in house
Method: as §1, §2, §3, §4, §5, §6, §7, §8

[3] = molecular target: T3, GDP-loaded KRAS4b (amino acids 1-169) G12C/C118S protein (Homo sapiens, UniProt P01116, C118S/G12C); assay: Covalent cysteine 12 modification by MALDI-TOF MS, GDP-loaded KRAS G12C; type: binding; details: 15 minutes reaction time point
T3 construct: KRAS4b (amino acids 1-169) G12C/C118S protein; made in house
Method: as §1, §2, §3, §4, §5, §6, §7, §8

pERK in NCI-H358 cells = assay: Cell-based pERK HTRF assay (pERK inhibition in H358 cells); details: 30 min incubation
Method: Biological Example 3: Cell-Based pERK HTRF Assay
pERK assays (Perkin Elmer) were used to determine the effectiveness of compounds of the present disclosure in disrupting KRAS G12C protein/effector signaling in cells.
On Day 1, cells (NCI-H358) were seeded into 96-well plates at 4×10^4 cells/well in complete growth media (RPMI, 10% FBS).
On Day 2, cells were treated with compounds at 0.25% DMSO. The source plate was created with compounds diluted in media at 5-fold the final assay concentration. The compounds were run in a 9-point concentration curve starting at 75 μM, with a 3-fold dilution between concentrations. 20 μL was transferred onto the cell plates (final volume in wells was 100 μL). Plates were harvested after 30 min incubation by aspirating media and adding kit-supplied 1× supplemented lysis buffer to all wells (75 μl per well). Plates were then placed on a plate shaker and incubated at 850 rpm for an additional 30 min.
Antibody mixture solution was prepared by diluting aliquoted d2 and Eu Cryptate antibodies 1:20 in kit supplied detection buffer, then mixed the diluted antibodies solutions (1:1 v:v). 4 μL of this solution was then added to a 384-well detection plate (Perkin Elmer; 6008230).
Samples were homogenized by pipetting up and down and then transferred (16 μL of cell lysates) from the 96-well cell culture plate to two wells of the HTRF 384-well detection plate containing the antibody solution. Plates were centrifuged (524 g for […]) and allowed to incubate between 4 and 24 h at room temperature. Maximum signal is reached after 4 h incubation time and remains stable over a period of 24 hours. Therefore, readings can be made between 4 and 24 h of incubation. Plates were centrifuged again (524 g for 1 min), and analyzed on the En Vision plate reader using the following settings: Excitation 320 nm, Bandwidth 75 nm; Emission 615 nm, Bandwidth 85 nm; Gain 100%; Flashes 100; Lag 60 μs.
The percent of modification of GppNHp, GTP, or GDP loaded KRAS G12C by MALDI-TOF MS, biochemical Raf1 RBD-KRAS G12C-GppNHp disruption assay IC50, and pERK inhibition IC50 of selected compounds described herein are shown in Table 4. For percent of modification at 15 minutes (MALDI-TOF MS) of GppNHp, GTP, or GDP loaded KRAS G12C: A: percent of modification ≥70%; B: 50≤percent of modification <70%; C: 10%≤percent of modification <50%; D: percent of modification <10%. […] For pERK inhibition in H358 cell assay: A: IC50≤0.1 μM; B: 0.1 μM<IC50≤1 μM; C: IC50>1 μM. Blanks in the table represent that compound was not tested in the indicated assay.

Compound | GTP-KRAS G12C percent of modification [1] | GppNHp-KRAS G12C percent of modification [2] | GDP-KRAS G12C percent of modification [3] | IC50 (pERK in NCI-H358 cells; Homo sapiens, NCI-H358, 0.5 h) | IC50 (pERK in NCI-H358 cells)
C=CC(=O)N1CC[C@@H](N(C)c2nc(OC[C@@]34CCCN3C[C@H](F)C4)nc3c(F)c(-c4ccc(F)c5sc(N)c(C#N)c45)c(Cl)cc23)[C@H]1C (atropisomer, axis not shown) [Compound 51] | A (percent of modification ≥70%) | A (percent of modification ≥70%) | – | – | –
C=CC(=O)N1CC[C@@H](N(C)c2nc(OC[C@@]34CCCN3C[C@H](F)C4)nc3c(F)c(-c4ccc(F)c5sc(N)c(C#N)c45)c(C(F)(F)F)cc23)[C@@H]1C (atropisomer, axis not shown) [Compound 70] | A (percent of modification ≥70%) | A (percent of modification ≥70%) | A (percent of modification ≥70%) | – | –
C[C@@H]1[C@H](N(C)c2nc(OC[C@@]34CCCN3C[C@H](F)C4)nc3c(F)c(-c4ccc(F)c5sc(N)c(C#N)c45)c(C(F)(F)F)cc23)CCN1C(=O)[C@@H](F)Cl (atropisomer, axis not shown) [Compound 184] | D (percent of modification <10%) | D (percent of modification <10%) | D (percent of modification <10%) | 100 to 1000 nM | –
C[C@@H]1[C@H](N(C)c2nc(OC[C@@]34CCCN3C[C@H](F)C4)nc3c(F)c(-c4ccc(F)c5sc(N)c(C#N)c45)c(C(F)(F)F)cc23)CCN1C(=O)[C@@H](F)Cl (atropisomer, axis not shown) [Compound 185] | A (percent of modification ≥70%) | A (percent of modification ≥70%) | A (percent of modification ≥70%) | – | < 100 nM
C[C@@H]1[C@H](N(C)c2nc(OC[C@@]34CCCN3C[C@H](F)C4)nc3c(F)c(-c4ccc(F)c5sc(N)c(C#N)c45)c(C(F)(F)F)cc23)CCN1C(=O)[C@H](F)Cl (atropisomer, axis not shown; (aS)) [Compound 182, 2-amino-4-((R)-4-(((2R,3R)-1-((R)-2-chloro-2-fluoroacetyl)-2-methylpyrrolidin-3-yl)(methyl)amino)-8-fluoro-2-(((2R,7aS)-2-fluorotetrahydro-1H-pyrrolizin-7a(5H)-yl)methoxy)-6-(trifluoromethyl)quinazolin-7-yl)-7-fluorobenzo[b]thiophene-3-carbonitrile] | D (percent of modification <10%) | D (percent of modification <10%) | D (percent of modification <10%) | 100 to 1000 nM | –
C=CC(=O)N1CC[C@@H](N(C)c2nc(OC[C@@]34CCCN3C[C@H](F)C4)nc3c(F)c(-c4ccc(F)c5sc(N)c(C#N)c45)ccc23)[C@H]1C [Compound 13] | A (percent of modification ≥70%) | A (percent of modification ≥70%) | A (percent of modification ≥70%) | – | –
C=CC(=O)N1CC[C@@H](N(CC)c2nc(OC[C@@]34CCCN3C[C@H](F)C4)nc3cc(-c4ccc(F)c5sc(N)c(C#N)c45)c(F)cc23)[C@H]1C [Compound 21, 4-(4-(((2R,3R)-1-acryloyl-2-methylpyrrolidin-3-yl)(ethyl)amino)-6-fluoro-2-(((2R,7aS)-2-fluorotetrahydro-1H-pyrrolizin-7a(5H)-yl)methoxy)quinazolin-7-yl)-2-amino-7-fluorobenzo[b]thiophene-3-carbonitrile] | A (percent of modification ≥70%) | A (percent of modification ≥70%) | A (percent of modification ≥70%) | – | –
C=CC(=O)N1C[C@H](C)N(c2nc(OC[C@]34CCCN3C[C@@H](F)C4)nc3c(F)c(-c4ccc(F)c5sc(N)c(C#N)c45)c(C(F)(F)F)cc23)C[C@H]1C [Compound 26] | – | B (50≤percent of modification <70%) | C (10%≤percent of modification <50%) | – | –
C=CC(=O)N1CC[C@@H](N(CC)c2nc(OC[C@@]34CCCN3C[C@H](F)C4)nc3c(F)c(-c4ccc(F)c5sc(N)c(C#N)c45)c(Cl)cc23)[C@H]1C [Compound 85] | B (50≤percent of modification <70%) | A (percent of modification ≥70%) | – | < 100 nM | –
C=CC(=O)N1CC[C@@H](N(C)c2nc(O[C@@H](C)[C@@H]3C[C@@H](OC)CN3C)nc3c(F)c(-c4ccc(F)c5sc(N)c(C#N)c45)c(C(F)(F)F)cc23)[C@H]1C [Compound 192] | A (percent of modification ≥70%) | A (percent of modification ≥70%) | A (percent of modification ≥70%) | – | –
